Values after ≈ are worked out from the molar mass of the structure shown. Like-named read-outs stand apart in the source and are kept apart here.
What was measured:
[1] = tested on: Bacillus subtilis PCI 219; assay: MIC, in vitro antibacterial activity (standard strains); format: cell-based; settings: Bacillus subtilis, PCI219; 10^6 cells/ml; Gram +; read-out: MIC
[2] = tested on: S. aureus IID 670 (Terajima); assay: as above; format: cell-based, Staphylococcus aureus; settings: Staphylococcus aureus, IID670; 10^6 cells/ml; Gram +; read-out: MIC
[3] = tested on: S. epidermidis IID 866; assay: as above; format: cell-based; settings: Staphylococcus epidermidis, IID866; 10^6 cells/ml; Gram +; read-out: MIC
[4] = tested on: S. pneumoniae IID 552; assay: as above; format: cell-based; settings: Streptococcus pneumoniae, IID552; 10^6 cells/ml; Gram +; read-out: MIC
[5] = tested on: E. faecalis IID 682; assay: as above; format: cell-based; settings: Enterococcus faecalis, IID682; 10^6 cells/ml; Gram +; read-out: MIC
[6] = tested on: E. coli ATCC 10536; assay: as above; format: cell-based, Escherichia coli; settings: Escherichia coli, ATCC10536; 10^6 cells/ml; Gram -; read-out: MIC
[7] = tested on: E. coli ML 4707; assay: as above; format: cell-based, Escherichia coli; settings: Escherichia coli
[8] = tested on: Proteus vulgaris IFO 3167; assay: as above; format: cell-based; settings: Proteus vulgaris, IFO3167; 10^6 cells/ml; Gram -; read-out: MIC
[9] = tested on: P. mirabilis IID 994; assay: as above; format: cell-based; settings: Proteus mirabilis, IID994; 10^6 cells/ml; Gram -; read-out: MIC
[10] = tested on: Morganella morganii IID 602; assay: as above; format: cell-based; settings: Morganella morganii, IID602; 10^6 cells/ml; Gram -; read-out: MIC
[11] = tested on: K. pneumoniae 1-220S; assay: as above; format: cell-based, Klebsiella pneumoniae; settings: Klebsiella pneumoniae, 1220S; 10^6 cells/ml; Gram -; read-out: MIC
[12] = tested on: Citrobacter freundii IID 976; assay: as above; format: cell-based; settings: Citrobacter freundii, IID976; 10^6 cells/ml; Gram -; read-out: MIC
[13] = tested on: Serratia marcescens IID 618; assay: as above; format: cell-based; settings: Serratia marcescens, IID618; 10^6 cells/ml; Gram -; read-out: MIC
[14] = tested on: Pseudomonas aeruginosa V-1; assay: as above; format: cell-based; settings: Pseudomonas aeruginosa, V1; 10^6 cells/ml; Gram -; read-out: MIC
[15] = tested on: P. aeruginosa IFO 12689; assay: as above; format: cell-based, Pseudomonas aeruginosa; settings: Pseudomonas aeruginosa, IFO12689; 10^6 cells/ml; Gram -; read-out: MIC
[16] = tested on: P. aeruginosa IID 1210; assay: as above; format: cell-based, Pseudomonas aeruginosa; settings: Pseudomonas aeruginosa, IID1210; 10^6 cells/ml; Gram -; read-out: MIC
[17] = tested on: Yersinia enterocolitica IID 981; assay: as above; format: cell-based; settings: Yersinia enterocolitica, IID981; 10^6 cells/ml; Gram -; read-out: MIC
[18] = tested on: Bacteroides fragilis GM 7000; assay: as above; format: cell-based; settings: Bacteroides fragilis, GM7000; 10^6 cells/ml; Gram -; read-out: MIC
[19] = tested on: B. fragilis 0558; assay: as above; format: cell-based, Bacteroides fragilis; settings: Bacteroides fragilis, 0558; 10^6 cells/ml; Gram -; read-out: MIC
[20] = tested on: B. distasonis 8503; assay: as above; format: cell-based; settings: Parabacteroides distasonis, 8503; 10^6 cells/ml; Gram -; read-out: MIC
[21] = tested on: B. thetaiotaomicron (0661); assay: as above; format: cell-based; settings: Bacteroides thetaiotaomicron; 10^6 cells/ml; Gram -; read-out: MIC
[22] = tested on: B. vulgatus KYA 29327; assay: as above; format: cell-based; settings: Phocaeicola vulgatus, KYA29327; 10^6 cells/ml; Gram -; read-out: MIC
[23] = tested on: Fusobacterium mortiferum 4249; assay: as above; format: cell-based; settings: Fusobacterium mortiferum, 4249; 10^6 cells/ml; Gram -; read-out: MIC
[24] = tested on: F. necrophorum S-45; assay: as above; format: cell-based; settings: Fusobacterium necrophorum, S45; 10^6 cells/ml; Gram -; read-out: MIC
[25] = tested on: F. varium KYA 8501; assay: as above; format: cell-based; settings: Fusobacterium varium, KYA8501; 10^6 cells/ml; Gram -; read-out: MIC
[26] = tested on: Eubacterium lentum GAI 5242; assay: as above; format: cell-based; settings: Eggerthella lenta, GAI5242; 10^6 cells/ml; Gram +; read-out: MIC
[27] = tested on: Propionibacterium acens 11828; assay: as above; format: cell-based; settings: Propionibacterium, 11828; 10^6 cells/ml; Gram +; read-out: MIC
[28] = tested on: Peptococcus magnus KY 017; assay: as above; format: cell-based; settings: Finegoldia magna, KY017; 10^6 cells/ml; Gram +; read-out: MIC
[29] = tested on: C. perfringens KYA 13123; assay: microbe, parasite or virus in culture; format: cell-based; settings: Clostridium perfringens, KYA13123
[30] = tested on: C. ramosum; assay: MIC, in vitro antibacterial activity (standard strains); format: cell-based; settings: Thomasclavelia ramosa; 10^6 cells/ml; Gram +; read-out: MIC
[31] = tested on: Peptostreptococcus anaerobius KYA 27337; assay: as above; format: cell-based; settings: Peptostreptococcus anaerobius, KYA27337; 10^6 cells/ml; Gram +; read-out: MIC
[32] = tested on: Pst. micros UPI 5464-1; assay: as above; format: cell-based; settings: Parvimonas micra, UPI54641; 10^6 cells/ml; Gram +; read-out: MIC
[33] = ML4707, 10^6 cells/ml, Gram -, Table 1, read-out: MIC

| Structure (SMILES) | MIC [1] [µg/mL] | MIC [2] [µg/mL] | MIC [3] [µg/mL] | MIC [6] [µg/mL] | MIC [8] [µg/mL] | MIC [9] [µg/mL] | MIC [10] [µg/mL] | MIC [11] [µg/mL] | MIC [12] [µg/mL] | MIC [13] [µg/mL] | MIC [14] [µg/mL] | MIC [15] [µg/mL] | MIC [16] [µg/mL] | MIC [17] [µg/mL] | MIC [18] [µg/mL] | MIC [19] [µg/mL] | MIC [21] [µg/mL] | MIC [22] [µg/mL] | MIC [23] [µg/mL] | MIC [24] [µg/mL] | further results |
| --- | --- | --- | --- | --- | --- | --- | --- | --- | --- | --- | --- | --- | --- | --- | --- | --- | --- | --- | --- | --- | --- |
| CCNCC1CN(c2c(F)cc3c(=O)c(C(=O)O)cn(C4CC4)c3c2F)CC1C (centres unmarked) [Example 15, 1-Cyclopropyl-7-(3-ethylaminomethyl-4-methyl-1-pyrrolidinyl)-6,8-difluoro-1,4-dihydro-4-oxo-3-quinolinecarboxylic acid] | 0.025 (≈ 0.0617 µM) | 0.05 (≈ 0.123 µM) | 0.05 (≈ 0.123 µM) | 0.05 (≈ 0.123 µM) | 0.1 (≈ 0.247 µM) | 0.1 (≈ 0.247 µM) | 0.2 (≈ 0.493 µM) | 0.2 (≈ 0.493 µM) | 0.1 (≈ 0.247 µM) | 0.2 (≈ 0.493 µM) | 0.78 (≈ 1.92 µM) | 3.13 (≈ 7.72 µM) | 3.13 (≈ 7.72 µM) | 0.2 (≈ 0.493 µM) | 0.78 (≈ 1.92 µM) | 0.39 (≈ 0.962 µM) | 1.56 (≈ 3.85 µM) | 0.78 (≈ 1.92 µM) | 0.39 (≈ 0.962 µM) | 0.39 (≈ 0.962 µM) | MIC [4]: 0.1 µg/mL (≈ 0.247 µM); MIC [5]: 0.1 µg/mL (≈ 0.247 µM); MIC [7, 33]: 0.05 µg/mL (≈ 0.123 µM); MIC [20]: 3.13 µg/mL (≈ 7.72 µM); MIC [25]: 1.56 µg/mL (≈ 3.85 µM); MIC [26]: 0.39 µg/mL (≈ 0.962 µM); MIC [27]: 3.13 µg/mL (≈ 7.72 µM); MIC [28]: ≤ 0.05 µg/mL; MIC [29]: 0.1 µg/mL (≈ 0.247 µM); MIC [30]: 0.78 µg/mL (≈ 1.92 µM); MIC [31]: 0.2 µg/mL (≈ 0.493 µM); MIC [32]: 0.78 µg/mL (≈ 1.92 µM) |
| C[C@H]1CN(c2c(F)cc3c(=O)c(C(=O)O)cn4c3c2OC[C@@H]4C)C[C@H]1N.Cl (mixture of isomers) [Example 31, (3S)-10-(cis-3-Amino-4-methyl-1-pyrrolidinyl)-9-fluoro-2,3-dihydro-3-methyl-7-oxo-7H-pyrido[1,2,3-de][1,4]benzoxazine-6-carboxylic acid hydrochloride] | 0.05 | 0.2 | 0.2 | 0.025 | 0.1 | 0.1 | 0.2 | 0.1 | 0.05 | 0.1 | 0.39 | 0.78 | 3.13 | 0.1 | 1.56 | 0.78 | 3.13 | 3.13 | 0.39 | 0.39 | MIC [4]: 0.2 µg/mL; MIC [5]: 0.2 µg/mL; MIC [7, 33]: 0.025 µg/mL; MIC [25]: 3.13 µg/mL; MIC [26]: 0.39 µg/mL; MIC [27]: 6.25 µg/mL; MIC [28]: 0.2 µg/mL; MIC [29]: 0.2 µg/mL; MIC [30]: 6.25 µg/mL; MIC [31]: 0.39 µg/mL; MIC [32]: 0.2 µg/mL |
| CC1COc2c(N3C[C@@H](N)[C@@H](C)C3)c(F)cc3c(=O)c(C(=O)O)cn1c23.Cl (relative stereo) [Example 29, 10-(cis-3-Amino-4-methyl-1-pyrrolidinyl)-9-fluoro-2,3-dihydro-3-methyl-7-oxo-7H-pyrido[1,2,3-de][1,4]benzoxazine-6-carboxylic acid hydrochloride] | 0.05 | 0.39 | 0.2 | 0.05 | 0.05 | 0.1 | 0.2 | 0.2 | 0.1 | 0.1 | 0.39 | 1.56 | 6.25 | 0.2 | 3.13 | 1.56 | 6.25 | 6.25 | 0.78 | 0.78 | MIC [4]: 0.39 µg/mL; MIC [5]: 0.39 µg/mL; MIC [7, 33]: 0.05 µg/mL; MIC [25]: 6.25 µg/mL; MIC [26]: 0.78 µg/mL; MIC [27]: 12.5 µg/mL; MIC [28]: 0.78 µg/mL; MIC [29]: 0.39 µg/mL; MIC [30]: 12.5 µg/mL; MIC [31]: 1.56 µg/mL; MIC [32]: 0.39 µg/mL |
| C[C@@H]1CN(c2c(F)cc3c(=O)c(C(=O)O)cn(C4CC4)c3c2Cl)C[C@H]1N (relative stereo) [Example 17, 7-(trans-3-Amino-4-methyl-1-pyrrolidinyl)-8-chloro-1-cyclopropyl-6-fluoro-1,4-dihydro-4-oxo-3-quinolinecarboxylic acid] | 0.0125 (≈ 0.0329 µM) | 0.05 (≈ 0.132 µM) | 0.05 (≈ 0.132 µM) | 0.0063 (≈ 0.0166 µM) | 0.0125 (≈ 0.0329 µM) | 0.025 (≈ 0.0658 µM) | 0.05 (≈ 0.132 µM) | 0.0125 (≈ 0.0329 µM) | 0.0125 (≈ 0.0329 µM) | 0.05 (≈ 0.132 µM) | 0.1 (≈ 0.263 µM) | 0.39 (≈ 1.03 µM) | 0.39 (≈ 1.03 µM) | 0.025 (≈ 0.0658 µM) | 0.05 (≈ 0.132 µM) | 0.05 (≈ 0.132 µM) | 0.1 (≈ 0.263 µM) | 0.05 (≈ 0.132 µM) | 0.1 (≈ 0.263 µM) | 0.05 (≈ 0.132 µM) | MIC [7, 33]: 0.0063 µg/mL (≈ 0.0166 µM); MIC [20]: 0.1 µg/mL (≈ 0.263 µM); MIC [25]: 0.78 µg/mL (≈ 2.05 µM); MIC [26]: 0.05 µg/mL (≈ 0.132 µM); MIC [27]: 0.78 µg/mL (≈ 2.05 µM); MIC [28]: 0.05 µg/mL (≈ 0.132 µM); MIC [29]: 0.05 µg/mL (≈ 0.132 µM); MIC [30]: 0.39 µg/mL (≈ 1.03 µM); MIC [31]: 0.1 µg/mL (≈ 0.263 µM); MIC [32]: 0.05 µg/mL (≈ 0.132 µM) |
| CC1CN(c2c(F)cc3c(=O)c(C(=O)O)cn(C4CC4)c3c2F)CC1N.Cl (centres unmarked) [Example 11, 7-(3-Amino-4-methyl-1-pyrrolidinyl)-1-cyclopropyl-6,8-difluoro-1,4-dihydro-4-oxo-3-quinolinecarboxylic acid hydrochloride] | 0.025 | 0.1 | 0.1 | 0.025 | 0.025 | 0.05 | 0.05 | 0.05 | 0.05 | 0.05 | 0.39 | 0.39 | 0.39 | 0.05 | 0.78 | 0.39 | 0.78 | 0.39 | 0.39 | 0.39 | MIC ([7]; ML4707): 0.0125 µg/mL; MIC ([7]; ML4707, Table 2, strain of the mouse infection, read-out: MIC): 0.025 µg/mL; MIC [20]: 0.78 µg/mL; MIC [25]: 1.56 µg/mL; MIC [26]: 0.39 µg/mL; MIC [27]: 3.13 µg/mL; MIC [28]: 0.2 µg/mL; MIC [29]: 0.39 µg/mL; MIC [30]: 1.56 µg/mL; MIC [31]: 0.39 µg/mL; MIC [32]: 0.39 µg/mL |
